pIC50: −log10 of the molar value. Where two headings read alike, the source gives them in different places.

Data set [1] concerns P-gp. As to the kind of experiment: Bidirectional Caco-2 permeability / P-gp efflux assay. In kind it is in vitro ADME. To be noted: human. How it is done: (§1) Permeability of the compounds was evaluated in the bidirectional Caco-2 assay including identification of P-glycoprotein substrate (Pgp-mediated transport). Verapamil was used as a p-gp inhibitor. The apparent permeability (Papp) was calculated using the following equation:
(§2) Papp=VA/Area×Time×[drug]acc/[drug]initial,d
(§3) Permeability of the compounds was evaluated in the bidirectional Caco-2 assay as described in Example 11 (Table 15).
Background: Caco-2 monolayers are a common model of the intestinal barrier.

In data set [2] the test system is Caco-2. The data set is described as above. In kind it is in vitro ADME. Particulars: human, Caco-2. The procedure:
as §1, §2, §3

The nature of data set [3]: BBB permeability, cassette intravenous dosing. In kind it is in vivo, male CD-1 mice. Particulars: cassette IV 5 mg/kg; for concentration at 5 min: 10% DMSO in PBS. The procedure: BBB permeability of the compounds was tested in male CD-1@IGS mice using cassette intravenous dosing (Table 7 and FIGS. 6A and 6B). There were three animals in each group, given a dose of 5 mg/kg formulated in 10% DMSO in PBS (v/v) for 5 minutes. The endpoint was quantifying the parent compound using LC-MS/MS. Plasma samples (50 μl) were immediately mixed with 25 μl of H3PO4 (8.5%). Then 225 μl of internal standard (IS; 400 ng/ml meldonium in methanol) was added. After mixing by pipetting and centrifuging for 4 min at 6000 rpm, 2 μl of each supernatant was injected into LC-MS/MS system. Brain samples (100 mg±1 mg) were immediately mixed with 100 μl H3PO4 (25%) and zirconium oxide beads (115 mg±5 mg). Then 400 μl of IS solution was added and samples were disperse using a bullet blender homogenizer for 30 seconds at speed 8. The samples were centrifuged for 4 min at 14,000 rpm and 2 μl of each supernatant was injected into LC-MS/MS system.

A short description of data set [4]: Metabolic stability in mouse liver microsomes. The data set is classed as in vitro ADME. How it is done:
Metabolic stability of the compounds was also determined in mouse liver microsomes at five time points over 60 minutes, using HPLC-MS. Liver microsomes, as vesicles of the hepatocyte endoplasmic reticulum, contain membrane phase I enzymes namely CYPs, flavine-containing monooxygenases (FMO), esterases, amidases, and epoxide hydrolases, and also the phase II enzymes such as UGTs. For the catalytic activity of both phase I and II enzymes, addition of exogenous cofactors such as NADPH for CYPs and FMO, and UDPGA/alamethicin for UGTs is necessary.

In data set [5] the test system is T98G cells. The data set can be described thus: Cell Titer Glo viability of T98G cells with or without O6-BG pretreatment. The data set is classed as cell-based. How it is done:
T98G cells, which express MGMT, were treated with TMZ or test compounds with or without 3, 6, or 24 hours of pretreatment with 100 μM of O^6-benzylguanine (O^6-BG; a pseudo-substrate of MGMT that quenches the cellular store of enzyme). T98G cell lysates were probed with anti-MGMT antibody and then with anti-a tubulin (FIG. 4). In a separate experiment, TMZ or test compounds were added to T98G cells with or without 5-6 hours of pretreatment with 100 μM O^6-BG. Cell viability was measured using the Cell Titer Glo assay after 3 days of incubation and IC50 values were determined (Table 3).

Data set [6] relates to GBM8. As to the kind of experiment: AlamarBlue cell viability, GBM8 patient-derived cell line. The data set is classed as cell-based. To be noted: 72 h, read-out: IC50, 72 h. How it is done:
(§4) The effect of selected compounds on glioma cells viability was determined. The cells were plated at 2000 cells/well in 96 well plates. The day after, cells were treated with various concentrations of temozolomide or VMY-TP analogs.
On the technique in general: Resazurin is reduced to fluorescent resorufin, in cell work by metabolically active cells.

The subject of data set [7] is U251. As to the kind of experiment: cells. Particulars: read-out: IC50, 72 h. How it is done: as §4
(§5) Activity of TP-RGD was assessed in glioma cell cultures, as described in Example 11.

Data set [8] concerns T98G. The data set can be described thus: cells. How it is done: as §4, §5
Data set [9] has as its system U87. As to the kind of experiment: cells. Particulars: read-out: IC50, 72 h. How it is done: as §4, §5
Data set [10] in a line: Aqueous chemical stability (HPLC-MS). The data set is classed as physicochemical. The procedure:
Detection of products of non-enzymatic cleavage (AIC-TMZ, AIC-TP3, AIC-TP5, and AIC-TP9) was performed (Table 4; FIGS. 5A-5D).

In data set [11] the test system is U251. To be noted: read-out: IC50 U251 cell proliferation (BrdU ELISA); 72 hours of treatment. A general note: Incorporation of labelled thymidine or its analogues reports DNA synthesis.
Description: U87 cells were seeded at the density of 2,000 cells/well in 96-well plates and incubated overnight. The day after, cells were treated with various concentrations of Temozolomide or analogs for 72 hours. The BrdU ELISA proliferation assay was performed according to the manufacturer's instructions (Roche, #11647229001). Briefly, 20 μl of diluted BrdU labelling reagent was added to each well, to a final concentration of 10 μM BrdU per well. The cells were then incubated at 37° C. for 24 hours. Following this incubation, the labeling medium was aspirated from each well and 200 μl of Roche FixDenat fixing buffer was added. The plates were then incubated at 25° C. for 30 minutes. The fixing solution was removed, and 100 μl of Anti-BrdU-POD antibody was added to each well and incubated again at 25° C. for 90 minutes. Wells were rinsed three times with 200 μl of PBS, then 100 μl of Roche Substrate solution was added to each well. Following a 25 minute incubation at room temperature, the absorbance of each plate was read at 370 nm (reference wavelength: approx. 492 nm) on a Spectramax® i3x microplate reader.
The effect on U251 cell proliferation after 72 hours of treatment was also assessed using the BrdU ELISA cell proliferation assay as described in Example 11.
The conditions of data set [12]: for % decomp.: AIC formation, pH>7.4, 60° C.; for % SM: phosphate buffer pH>7.4, 60° C. How it is done:
2 mg of TP-RGD was dissolved in 0.8 mL of phosphate buffer at pH>7.4. […] Then the reaction temperature was increased to 60° C. and incubated for 4 h. During the period of incubation, the reaction was monitored for every 30 min by LC-MS. Measure the AIC formation (% decomp) over the time.

Data set [13] concerns P-glycoprotein (P-gp). As to the kind of experiment: Bidirectional Caco-2 permeability / P-gp efflux assay. In kind it is in vitro ADME. To be noted: human; Caco-2 permeability; P-gp efflux ratio, Table 15. How it is done:
as §1, §2, §3

Data set [14] concerns A172. The data set can be described thus: cells. Particulars: read-out: IC50, 72 h; A172, MGMT −, Table 14. How it is done: as §4, §5

In [1] (Caco-2), `C[C@H]1O[C@@H](O[C@H]2[C@@H](O)C[C@H](O[C@H]3[C@@H](O)C[C@H](O[C@H]4CC[C@@]5(C)[C@H](CC[C@@H]6[C@@H]5C[C@@H](O)[C@]5(C)[C@@H](C7=CC(=O)OC7)CC[C@]65O)C4)O[C@@H]3C)O[C@@H]2C)C[C@H](O)[C@@H]1O` [Digoxin] showed a Papp A→B of 1.2 ×10⁻⁶ cm/s and a Papp B→A of 15.8 ×10⁻⁶ cm/s. Further, in [1] (Caco-2, Efflux Ratio BA/AB p-gp Inhibitor (−)), the efflux ratio came to 13.6. In data set [2], the “Efflux Ratio BA/AB p-gp Inhibitor (+)” value was found to be 1.0, the “Papp (AB) p-gp Inhibitor (+)” value is listed as 5.9 10^−6 cm/s and the “Papp (BA) p-gp Inhibitor (+)” value is 6.1 10^−6 cm/s.

What is called Kp is the ratio of the level in a tissue or fluid to that in plasma or blood. For orientation: half-life means the time in which the quantity being followed falls by half. The low end stands for fast loss, the high end for slow loss. For `Cn1nnc2c(C(=O)NC3CCCCC3)ncn2c1=O` [TP5, N-cyclohexyl-3-methyl-4-oxo-3,4-dihydroimidazo[5,1-d][1,2,3,5]tetrazine-8-carboxamide], in data set [3] (5 min), the “% Brain” value was found to be 25%. Further, the “% Plasma” value in data set [3] (5 min) stood at 75%. Further, the concentration at 5 min in data set [3] (male, CD-1, mouse, brain, read-out: Brain Conc.) is 3050 ng/g; in [3] (male, CD-1, mouse, plasma, read-out: Plasma Conc), 3120 ng/mL. The molecule further gave a Kp at 5 min in data set [3] (male, CD-1, mouse, brain/plasma) of 0.99. For the same molecule, the “Clearance Classification (Low <8.6; High >48)” value in data set [4] was “Moderate”. In addition, the microsomal CLint in data set [4] (mouse, liver microsomes, read-out: Intrinsic clearance (Clint)) came out at 25 µL/min/mg. Besides, the “% remaining (1 h) With co-factors” value in data set [4] (with co-factors) is reported as 49%. Further, the “% remaining (1 h) Without co-factors” value in [4] (without co-factors) stood at 94%. The pIC50 in data set [5] (Homo sapiens, read-out: IC50 With O^6-BG pretreatment) is 3.77; in data set [5] (Homo sapiens, read-out: IC50 Without O^6-BG pretreatment) it was 3.39; in [6], 4.55; in data set [7] (Homo sapiens, U-251, 72 h) it was 3.86; in data set [8] (Homo sapiens, 72 h, read-out: IC50, 72 h), 3.24; in data set [9] (Homo sapiens, U-87 MG, 72 h) it was 3.77. Further, in [1] (Caco-2, without verapamil, read-out: Efflux Ratio BA/AB p-gp Inhibitor (−)), the efflux ratio turned out to be 0.9. The Papp A→B in data set [1] (Caco-2, without verapamil, read-out: Papp (AB) p-gp Inhibitor (−)) amounted to 26.6 ×10⁻⁶ cm/s. The Papp B→A in data set [1] (Caco-2, without verapamil, read-out: Papp (BA) p-gp Inhibitor (−)) was 24.3 ×10⁻⁶ cm/s. In addition, the half-life at 1 μM in data set [10] (0.1 M phosphate buffer pH 7.0) is more than 2 h; in data set [10] (0.1 M phosphate buffer pH 8.0), 0.667 h; in [10] (PBS pH 7.4) it was 1.15 h.

With `Cn1nnc2c(C(=O)NCCCC[C@@H]3NC(=O)[C@@H](Cc4ccc(O)cc4)NC(=O)[C@H](CC(=O)O)NC(=O)CNC(=O)[C@H](CCCNC(=N)N)NC3=O)ncn2c1=O` [TP-RGD], the pIC50 in data set [11] is 4.15; in [7] (U251, MGMT −, Table 14), 6.51; in data set [8] (read-out: IC50, 72 h, MGMT +++, Table 14), 6.60; in data set [9] (U87MG, MGMT −, Table 14), less than 4.00; in data set [14] it was 6.42. The “% decomp.” value in data set [12] (0.5 h) was determined as 0%; in data set [12] (1 h), 18.2%; in data set [12] (1.5 h), 33.9%; in data set [12] (2 h) it was 53.5%; in data set [12] (2.5 h), 56.8%; in data set [12] (3 h) it was 61.6%. Besides, the “% decomp.” value in [12] (4 h) and in [12] (4.5 h) was 94.7% throughout. Also, the “% SM” value stood at 81.8% in data set [12] (1 h); 65.5% in [12] (1.5 h); 45.9% in data set [12] (2 h); 39.3% in data set [12] (2.5 h); 27.4% in [12] (3 h); 2.3% in data set [12] (4 h). Moreover, the “% SM” value in data set [12] (4.5 h) is given as 2.3%. Moreover, in [12] (phosphate buffer pH>7.4, room temperature), the “product formation (hydrolysis)” value is on record as “no product formation”. In addition, in data set [13], the efflux ratio turned out to be 0.57.

`O[C@H]([C@H](O)[C@@H]1CO1)[C@H]1CO1` [VAL-083, reference compound]: the pIC50 is 4.15 in data set [5] (5-6 h pretreatment with 100 μM O6-BG, 3 days, read-out: IC50 With O^6-BG pretreatment) and 3.97 in data set [5] (3 days, read-out: IC50 Without O^6-BG pretreatment).

As to `CC[C@]1(O)C[C@@H]2CN(CCc3c([nH]c4ccccc34)[C@@](C(=O)OC)(c3cc4c(cc3OC)N(C)[C@H]3[C@@](O)(C(=O)OC)[C@H](OC(C)=O)[C@]5(CC)C=CCN6CC[C@]43[C@@H]65)C2)C1` [Vinblastine], the efflux ratio in data set [1] (Caco-2, Efflux Ratio) turned out to be 21.7.

The values are drawn from patent publication US20230303577A1, “TEMOZOLOMIDE ANALOGS AND METHODS OF USE” (St. John's Cancer Institute, priority 2020, published 2023).
